Test results taken from patent US10450306B2, “Isoxazole analogs as FXR agonists and methods of use thereof” (Enanta Pharmaceuticals, Inc., priority 2016, dated 2019).

Target: T1, human FXR (NR1H4) (Homo sapiens, UniProt Q96RI1)
T1 construct: host or cells: CHO (Chinese hamster ovary) reporter cells
T1 sequence (Q96RI1 1-486): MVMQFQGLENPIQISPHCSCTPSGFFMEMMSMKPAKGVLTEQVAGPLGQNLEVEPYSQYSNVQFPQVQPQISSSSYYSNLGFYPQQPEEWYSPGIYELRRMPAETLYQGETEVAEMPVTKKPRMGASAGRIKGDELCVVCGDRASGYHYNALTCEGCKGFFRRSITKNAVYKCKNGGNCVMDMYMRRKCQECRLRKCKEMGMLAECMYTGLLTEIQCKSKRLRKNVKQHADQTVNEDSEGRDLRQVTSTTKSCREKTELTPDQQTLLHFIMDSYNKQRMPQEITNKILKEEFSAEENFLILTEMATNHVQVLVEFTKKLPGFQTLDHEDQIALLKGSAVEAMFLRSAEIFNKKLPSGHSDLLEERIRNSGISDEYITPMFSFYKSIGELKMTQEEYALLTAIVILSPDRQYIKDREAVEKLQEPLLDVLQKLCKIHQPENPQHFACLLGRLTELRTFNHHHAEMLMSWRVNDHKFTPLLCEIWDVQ
Test: Human FXR (NR1H4) Assay: Gal4 promoter driven luciferase reporter transactivation in CHO cells (Indigo Bioscience kit IB00601); as to Efficacy (%): efficacy normalized to CDCA set as 100%
Assay type: cell-based
Settings: for Emax: CHO, read-out: Efficacy (%); for EC50: Human FXR (NR1H4) reporter assay, potency ranges
Summary of the method: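 CHO reporter cells expressing human FXR with an FXR-responsive promoter-driven luciferase were treated with compound dose series at 0.2% DMSO for 22 h at 37 °C. Luciferase activity was then read by luminescence as the measure of FXR activation.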

Row | SMILES | Emax | EC50
1 | CN(Cc1c(-c2c(Cl)cccc2Cl)noc1C1CC1)[C@H]1C[C@H]2CC[C@@H](C1)N2c1nc2ccc(C(=O)NS(=O)(=O)C3(C)CC3)cc2s1 [Example 293] | 92% | 1 to 100 nM
2 | COC(=O)c1ccc2nc(N3C4CCC3CC(NCc3c(-c5c(Cl)cccc5Cl)noc3C3CC3)C4)oc2c1 (stereo not shown) [Example 19] | 78% | 100 to 1000 nM
3 | COC(=O)c1cc2sc(N3C4CCC3CC(NCc3c(-c5c(Cl)cccc5Cl)noc3C3CC3)C4)nc2cc1-c1ccccc1 (stereo not shown) [Example 200-23] | 76.5% | 1 to 100 nM
4 | CN(C)S(=O)(=O)NC(=O)c1ccc2nc(N3C4CCC3CC(NCc3c(-c5c(Cl)cccc5Cl)noc3C3CC3)C4)sc2c1 (stereo not shown) [Example 283] | 246% | > 1000 nM
5 | O=C(O)c1cnc2nc(N3C4CCC3CC(NCc3c(-c5c(Cl)cccc5Cl)noc3C3CC3)C4)sc2n1 (stereo not shown) [Example 200-18] | 91.3% | 1 to 100 nM
6 | O=C(NS(=O)(=O)N1CCCC1)c1cc(F)c2nc(N3C4CCC3CC(NCc3c(-c5c(Cl)cccc5Cl)noc3C3CC3)C4)sc2c1 (stereo not shown) [Example 400-1] | 210% | 1 to 100 nM
7 | COC(=O)c1cc(OC(C)C)c2nc(N3C4CCC3CC(NCc3c(-c5ccccc5OC(F)(F)F)noc3C3CC3)C4)sc2c1 (stereo not shown) [Example 413] | 118% | 1 to 100 nM
8 | O=C(O)c1cccc(N2CCN(Cc3c(-c4c(Cl)cccc4Cl)noc3C3CC3)CC2)c1 [Example 188] | 15% | > 1000 nM
9 | O=C(O)c1cc(F)c2nc(N3C4CCC3CC(NCc3c(-c5ccccc5OC(F)(F)F)noc3C3CC3)C4)sc2c1 (stereo not shown) [Example 404] | 88% | 1 to 100 nM
10 | O=C(O)c1cc(F)c2nc(N3[C@@H]4CC[C@H]3C[C@@H](NCc3c(-c5c(Cl)cccc5Cl)noc3C3CC3)C4)sc2c1 [Example 4, 2-((1R,3R,5S)-3-(((5-cyclopropyl-3-(2,6-dichlorophenyl)isoxazol-4-yl)methyl)amino)-8-azabicyclo[3.2.1]octan-8-yl)-4-fluorobenzo[d]thiazole-6-carboxylic acid] | 169% | < 1 nM
11 | COc1cc(C(=O)O)cc2sc(N3C4CCC3CC(NCc3c(-c5c(Cl)cccc5Cl)noc3C3CC3)C4)nc12 (stereo not shown) [Example 6] | 153% | < 1 nM
12 | O=C(NS(=O)(=O)c1ccccc1)c1ccc2nc(N3C4CCC3CC(NCc3c(-c5c(Cl)cccc5Cl)noc3C3CC3)C4)sc2c1 (stereo not shown) [Example 257] | 203% | 1 to 100 nM
13 | CC1(S(=O)(=O)NC(=O)c2ccc3nc(N4C5CCC4CC(NCc4c(-c6c(Cl)cccc6Cl)noc4C4CC4)C5)sc3c2)CC1 (stereo not shown) [Example 202] | 279% | < 1 nM
14 | O=C(O)c1ccc2nc(N3C4CCC3CC(NCc3c(-c5ccccc5C(F)(F)F)noc3C3CC3)C4)sc2c1 (stereo not shown) [Example 1413] | 90.7% | 1 to 100 nM
15 | CC(C)Oc1cc(C(=O)NS(=O)(=O)N2CCCC2)cc2sc(N3CCC(NCc4c(-c5c(Cl)cccc5Cl)noc4C4CC4)CC3)nc12 [Example 400-5] | 110% | 1 to 100 nM
16 | CC1(S(=O)(=O)NC(=O)c2cc(F)c3nc(N4C5CCC4CC(NCc4c(-c6c(Cl)cccc6Cl)noc4C4CC4)C5)sc3c2)CC1 (stereo not shown) [Example 295] | 152% | 1 to 100 nM
17 | CC(C)Oc1cc(C(=O)NS(=O)(=O)C2(C)CC2)cc2sc(N3C4CCC3CC(NCc3c(-c5c(F)cccc5F)noc3C3CC3)C4)nc12 (stereo not shown) [Example 1428] | 86% | 1 to 100 nM
18 | Cc1cc(C(=O)NS(=O)(=O)C2(C)CC2)cc2sc(N3C4CCC3CC(NCc3c(-c5c(Cl)cccc5Cl)noc3C3CC3)C4)nc12 (stereo not shown) [Example 400-29] | 118% | < 1 nM
19 | CC(C)Oc1cc(C(=O)NS(=O)(=O)C2CC2)cc2sc(N3CCC(NCc4c(-c5ccccc5OC(F)(F)F)noc4C4CC4)CC3)nc12 [Example 900-5] | 68.5% | 100 to 1000 nM
20 | COC(=O)c1cc(F)c2nc(N3C4CCC3CC(NCc3c(-c5ccccc5OC(F)(F)F)noc3C3CC3)C4)sc2c1 (stereo not shown) [Example 403] | 61% | 1 to 100 nM
21 | COC(=O)c1cc2sc(N3C4CCC3CC(NCc3c(-c5c(Cl)cccc5Cl)noc3C3CC3)C4)nc2c2ccccc12 (stereo not shown) [Example 200-27] | 28.3% | 1 to 100 nM
22 | O=C(NS(=O)(=O)C1CC1)c1cnc2nc(N3C4CCC3CC(NCc3c(-c5c(Cl)cccc5Cl)noc3C3CC3)C4)sc2n1 (stereo not shown) [Example 400-25] | 72% | 1 to 100 nM
23 | COC(=O)c1cc(C2CC2)c2nc(N3C4CCC3CC(NCc3c(-c5ccccc5C(F)(F)F)noc3C3CC3)C4)sc2c1 (stereo not shown) [Example 1409] | 52% | 1 to 100 nM
24 | CC(C)(C)OC(=O)CNC(=O)c1cc(F)c2nc(N3C4CCC3CC(NCc3c(-c5c(Cl)cccc5Cl)noc3C3CC3)C4)sc2c1 [Example 95, tert-butyl (2-((1R,3r,5S)-3-(((5-cyclopropyl-3-(2,6-dichlorophenyl)isoxazol-4-yl)methyl)amino)-8-azabicyclo[3.2.1]octan-8-yl)-4-fluorobenzo[d]thiazole-6-carbonyl)glycinate] | 128% | 1 to 100 nM
25 | CCOC(=O)c1ccc2nc(N3[C@@H]4CC[C@H]3C[C@@H](NCc3c(-c5c(Cl)cccc5Cl)noc3C3CC3)C4)sc2c1 [Example 1, ethyl 2-((1R,3R,5S)-3-(((5-cyclopropyl-3-(2,6-dichlorophenyl)isoxazol-4-yl)methyl)amino)-8-azabicyclo[3.2.1]octan-8-yl)benzo[d]thiazole-6-carboxylate] | 74% | > 1000 nM
26 | COC(=O)c1cc(C)c2nc(N3C4CCC3CC(NCc3c(-c5ccccc5C(F)(F)F)noc3C3CC3)C4)sc2c1 (stereo not shown) [Example 1404] | 46% | 100 to 1000 nM
27 | CCOc1cc(C(=O)O)cc2sc(N3C4CCC3CC(NCc3c(-c5c(Cl)cccc5Cl)noc3C3CC3)C4)nc12 (stereo not shown) [Example 200-10] | 92.5% | < 1 nM
28 | CCOC(=O)c1ccc2nc(N3CCC(NCc4c(-c5c(Cl)cccc5Cl)noc4C4CC4)CC3)sc2c1 [Example 173] | 116% | > 1000 nM
29 | O=C(NS(=O)(=O)C1CC1)c1ccc2nc(N3CCC(NCc4c(-c5c(Cl)cccc5Cl)noc4C4CC4)CC3)sc2c1 [Example 291] | 171% | 1 to 100 nM
